Measured values from patent publication US8877206B2, “Stimulation of an immune response by cationic lipids” (PDS Biotechnology Corporation, priority 2007, dated 2014).
Where two headings read alike, the source gives them in different places.

Tests used:
BMDC [1] = assay: CCL2 release from BMDC (ELISA); format: cell-based, C57BL/6 mice
ERK = assay: Western blot of ERK and p38 activation in BMDC; format: cell-based, mouse; conditions: for Effect on DOTAP-induced ERK phosphorylation: FIG. 19C
Method: (§1) BMDC cell lysate was collected after different treatments and total cellular protein was resolved on polyacrylamide/SDS gels and then transferred to polyvinylidene difluoride membranes. The membranes were blocked with 5% nonfat milk in Tris-buffered saline for 1 h and then incubated from 1 h to overnight with primary antibody. After washing the membranes with Tris-buffered saline three times, the membranes were incubated horseradish peroxidase conjugated secondary antibody for 1 h. The peroxidase activity associated with the protein bands was detected by enhanced chemiluminescence using ECL plus (Amershan International) followed by autoradiography.

DC2.4 dendritic cells = conditions: cited from earlier work; for Potency to stimulate expression of CD 80 vs lipids with longer or saturated acyl chains: ethyl phosphocholine head group lipids, FIG. 14B; for Expression of CD80/CD86: FIG. 14A, disclosed in U.S. Pat. No. 7,303,881
[2] = tested on: bone marrow derived dendritic cells (BMDC); format: cell-based, mouse
TC-1 tumor = assay: TC-1 HPV-positive tumor growth in treated mice; format: in vivo, C57BL/6 mice; conditions: 100 nmole dose, without E7 peptide
DC2.4 cells = assay: Affymetrix microarray of DC2.4 cells treated with DOTAP liposomes; format: cell-based, mouse
BMDC [3] = assay: RT-PCR of chemokine mRNA in BMDC; format: cell-based, mouse; conditions: 50 μM liposomes for 16 h; FIG. 15B
Method: Total RNA was isolated from BMDC by Rneasy Mini Kit from Qiagen according to the manufacturer's instruction. Following digestion with Dnase for 30 min at 37° C., the total RNA concentration was determined by spectrophotometry. Primer pairs for mouse CCL2, CCL3, CCL4 and β-actin (forward primer 5′-[…]-3′ [SEQ. ID. NO. 3] and reverse primer 5′-[…]-3′ [SEQ. ID. NO. 4] for CCL2; forward primer 5′-[…]-3′ [SEQ. ID. NO. 5] and reverse primer 5′-[…]-3′ [SEQ. ID. NO. 6] for CCL3; forward primer 5′-[…]-3′ [SEQ. ID. NO. 7] and reverse primer 5′-[…]-3′ [SEQ. ID. NO. 8] and reverse primer 5′-[…]-3′ [SEQ. ID. NO. 9] for β-actin [Wang H., et al., Potential involvement of monocyte chemoattractant protein (MCP)-1/CCL2 in IL-4-mediated tumor immunity through inducing dendritic cell migration into the draining lymph nodes, Int Immunopharmacol 3:627-42, (2003)] were synthesized by IDT technology. RT-PCR was performed using the one-step RT-PCR kit (commercially available from Invitrogen of Carlsbad, Calif.) where reverse transcription and DNA amplification occur in the same reaction. Briefly, 1 μg of total RNA was used as a template in a reaction that included the appropriate primers in the presence of both reverse transcriptase and Taq polymerase. The mixture was incubated at 45° C. for 30 min and cycled 25 times at 94° C. for 30 s, 55° C. for 30 s, and 72° C. for 2 min. […]

[4] = Western blot of ERK and p38 activation in BMDC; format: cell-based, mouse
Method: as §1

[5] = tested on: murine bone marrow derived dendritic cells (BMDC); conditions: Vangesseri et al 2006; cited from earlier work
[6] = tested on: draining lymph node cells; assay: Uptake of NBD-DOTAP and dendritic cell activation/migration to the draining lymph node; format: in vivo, mice
Method: Naïve mice (n=4-6) were injected with PBS control (FIGS. 7 A, C and E) or DOTAP/E7 containing 100 nmols total lipid with 0.5% 1-Oleoyl-2-[6-[(7-nitro-2-1,3-benzoxadiazol-4-yl)amino]hexanoyl]-3-trimethylammonium propane] (“NBD-DOTAP”) (FIGS. 7 B, D, and F). At 4 h after the injection, draining lymph node cells were prepared and stained with appropriate antibodies to surface markers. The co-expression of NBD and CD11c (FIGS. 7 A and B) or CD86 (FIGS. 7 C and D) were analyzed within total lymph node cells whereas the co-expression of NBD and CD8 (FIGS. 7 E and F) were gated and analyzed within CD3^+ population. The numbers represented the percentages of cells in the quadrants. Draining lymph node cells were harvested and analyzed by flow cytometry at different time points post injection. The numbers of CD11c^+ cells among total lymph node cells increased by more than 2.5-fold compared to untreated mice 4 h after NBD-DOTAP/E7 injection (FIGS. 7 A and B). […] NBD uptake by other cell types such as T lymphocytes was also investigated by costaining with anti-CD3, CD4 and CD8 antibodies.

[7] = BMDC stimulated 20 h at 37° C., supernatant ELISA, FIG. 1

CC(C)(C)n1nc(-c2ccc(Cl)cc2)c2c(N)ncnc21 [PP2, reference compound]
Effect on DOTAP-induced CCL2 production (BMDC [1]; pre-incubated 20 min, then 75 μM DOTAP 24 h, PD 20 μM, SB 10 μM, U 10 μM, PTx 200 ng/mL, PP2 10 μM, Wort 200 nM, GF 200 nM, FIG. 18): no inhibitory effect | Effect on DOTAP-induced ERK phosphorylation (ERK): no effect

CCCCCCCCCCCC(=O)OC[C@H](COP(=O)(OCC)OCC[N+](C)(C)C)OC(=O)CCCCCCCCCCC (stereo partly drawn) [DLEPC, 1,2-dilauroyl-sn-glycero-3-ethylphosphocholine]
Potency to stimulate expression of CD 80 vs lipids with longer or saturated acyl chains (DC2.4 dendritic cells): more potent

CCCCCCCC/C=C\CCCCCCCC(=O)OCC(C[N+](C)(C)C)OC(=O)CCCCCCC/C=C\CCCCCCCC (stereo not drawn) [DOTAP, 1,2-dioleoyl-3-trimethylammonium propane]
IL-10 induction [2]: no induction of IL-10 | IL-12 production [2, 7]: production increased in response to DOTAP concentration | TNF-α production [2, 7]: did not induce significant levels | TC-1 tumor growth (TC-1 tumor): did not show significant inhibition of tumor growth | CD11c mRNA (DC2.4 cells; 50 μM DOTAP): induced | IL-1 receptor antagonist (IL1RA) mRNA (DC2.4 cells; 50 μM DOTAP treatment for 16 h): increased | IL-1 β mRNA (DC2.4 cells; 50 μM DOTAP treatment for 16 h): decreased | mRNA of chemokines CCL2, CCL3, CCL4 (DC2.4 cells; 50 μM DOTAP, FIG. 15A): induced overexpression of several chemokines | CCL2 and CCL4 mRNA (RT-PCR) (BMDC [3]): upregulated | CCL2 release (BMDC [1]): induced significant amounts of CCL2 | Concentration at which maximum CCL2 induction was reached (BMDC [1]): 45 to 75 µM | MCP-1/CCL2 release from BMDC by liposomes (BMDC [1]): induced the MCP-1/CCL2 release | Phosphorylation of IκB and subsequent degradation [4]: no phosphorylation of IκB | p38 activation [4]: slightly activated | Time phospho-ERK stayed at a high level (ERK): at least 40 min | Time to ERK phosphorylation (ERK): ≤ 10 min | Expression of co-stimulatory molecules CD80 and CD86 [5]: activated for the expression of the co-stimulatory molecules

pertussis toxin [reference compound]
Effect on DOTAP-induced ERK phosphorylation (ERK): slight inhibitory effect

GF109203X [reference compound]
Effect on DOTAP-induced ERK phosphorylation (ERK): no effect

CCCCCCCCCCCCCCOC(=O)CC[C@H](NC(=O)[C@@H](N)CCCCN)C(=O)OCCCCCCCCCCCCCC [DMKD, O,O′-dimyristyl-N-lysyl-glutamate]
Expression of CD80/CD86 (DC2.4 dendritic cells): strongly stimulated

CCCCCCCC/C=C\CCCCCCCC(=O)OC[C@H](CO)OC(=O)CCCCCCC/C=C\CCCCCCCC [DOG]
MCP-1/CCL2 release from BMDC by liposomes (BMDC [1]; FIG. 16): did not

CCCCCCCC/C=C\CCCCCCCC(=O)OC[C@H](COP(=O)([O-])OCC[N+](C)(C)C)OC(=O)CCCCCCC/C=C\CCCCCCCC [DOPC, dioleoyl phosphatidylcholine]
MCP-1/CCL2 release from BMDC by liposomes (BMDC [1]): did not

CCCCCCCC/C=C\CCCCCCCC(=O)OCC(C[N+](C)(C)C)OC(=O)CCCCCNc1ccc([N+](=O)[O-])c2nonc12 (stereo not drawn) [NBD-DOTAP]
NBD uptake by CD3+ cells ([6]; FIG. 7E, F): no NBD uptake | Share taken up by dendritic cells ([6]; soon after immunization): ~80%

CCCCCCCC/C=C\CCCCCCCC(=O)OC[C@H](COP(=O)(O)OCC(O)CO)OC(=O)CCCCCCC/C=C\CCCCCCCC (stereo partly drawn) [DOPG]
MCP-1/CCL2 release from BMDC by liposomes (BMDC [1]; FIG. 16): did not

CCCCCCCC/C=C\CCCCCCCC(=O)OC[C@@H](COP(=O)(OCC)OCC[N+](C)(C)C)OC(=O)CCCCCCC/C=C\CCCCCCCC (stereo partly drawn) [DOEPC, 1,2-dioleoyl-sn-glycero-3-ethylphosphocholine]
CCL2 and CCL4 mRNA (RT-PCR) (BMDC [3]): upregulated | MCP-1/CCL2 release from BMDC by liposomes (BMDC [1]): induced the MCP-1/CCL2 release | Potency to stimulate expression of CD 80 vs lipids with longer or saturated acyl chains (DC2.4 dendritic cells): more potent | Expression of co-stimulatory molecules CD80 and CD86 [5]: activated for the expression of the co-stimulatory molecules

CCCCCCCCCCCCCC(=O)OCC(COP(=O)(OCC)OCC[N+](C)(C)C)OC(=O)CCCCCCCCCCCCC (stereo not drawn) [DMEPC, 1,2-dimyristoyl-sn-glycero-3-ethylphosphocholine]
Potency to stimulate expression of CD 80 vs lipids with longer or saturated acyl chains (DC2.4 dendritic cells): more potent

CCCCCCCCCCCCCCOC(=O)C[C@H](NC(=O)[C@@H](N)CCCCN)C(=O)OCCCCCCCCCCCCCC [DMKE, O,O′-dimyristyl-N-lysyl aspartate]
Expression of CD80/CD86 (DC2.4 dendritic cells): strongly stimulated

CCCCCCCC/C=C\CCCCCCCC(=O)OC[C@H](COP(=O)(O)OC[C@H](N)C(=O)O)OC(=O)CCCCCCC/C=C\CCCCCCCC [DOPS]
MCP-1/CCL2 release from BMDC by liposomes (BMDC [1]): did not

CCCCCCCC/C=C\CCCCCCCC(=O)OCC(CN(C)C)OC(=O)CCCCCCC/C=C\CCCCCCCC (stereo not drawn) [DODAP, dioleoyl dimethylaminopropane]
MCP-1/CCL2 release from BMDC by liposomes (BMDC [1]): did not induce the activity
